Counter-ions that a name gives are not always drawn.
What was measured:
THP-1 = THP-1 IC50 assay; assay type: cell-based; conditions: Homo sapiens; THP-1 cells
[1] = test system: IL-1β release upon NLRP3 activation in peripheral blood mononuclear cells (PBMC); assay: PBMC IC50 Determination Assay; assay type: cell-based; conditions: Homo sapiens; inhibition of IL-1β release; LPS-primed PBMC stimulated with ATP or nigericin
Procedure: The compounds of the present disclosure were tested for their inhibitory activity against IL-1β release upon NLRP3 activation in peripheral blood mononuclear cells (PBMC).
Protocol A. PBMC were isolated from buffy coats by density gradient centrifugation on Histopaque-1077 (Sigma, cat no. 10771). Isolated cells were seeded into the wells of a 96-well plate and incubated for 3 h with lipopolysaccharide (LPS). Following medium exchange, the compounds of the present disclosure were added (a single compound per well) and the cells were incubated for 30 min. Next, the cells were stimulated either with ATP (5 mM) or nigericin (10 μM) for 1 h and the cell culture media from the wells were collected for further analysis.
The release of IL-1β into the media was determined by a quantitative detection of IL-1β in the media using an IL-1β enzyme-linked immunosorbent assay (ELISA) Ready-SET-Go!, eBioscience cat. No. 88-7261-88. Briefly, in a first step, high affinity binding plates (Corning, Costar 9018 or NUNC Maxisorp Cat No. 44-2404) were coated overnight at 4° C. with specific capture antibody included in the kit (anti-human IL-1β ref. 14-7018-68). Subsequently, plates were blocked with blocking buffer for 1 h at room temperature (rt) and after washing with a buffer (PBS with 0.05% Tween-20) incubated with protein standard and culture media. After 2 h of incubation at rt, plates were washed and incubated with biotinylated detection antibody included in the kit (anti-human IL-1β Biotin ref. 33-7110-68) for 1 h at rt. Plates were washed and incubated with HRP-streptavidin for 30 min at rt and washed again. The signal was developed after addition of 3,3′,5,5′-tetramethylbenzidine-peroxidase (TMB) until colour appeared and the reaction was stopped by 2 M H2SO4. A microplate spectrophotometer (BioTek) was used to detect signals with 450 nm. The detection range of IL-1β ELISA was […].
Protocol B. PBMC were isolated from buffy coats by density gradient centrifugation on Histopaque-1077 (Sigma, cat no. 10771). Isolated cells were seeded into the wells (280,000 cells/well) of a 96-well plate and incubated for 3 h with lipopolysaccharide (LPS, 1 μg/mL diluted 1000× from a 1 mg/mL stock solution). The compounds of the present disclosure were added (a single compound per well) and the cells were incubated for 30 min. Next, the cells were stimulated with ATP (5 mM final concentration diluted 20× from a 100 mM stock solution) for 1 h and the cell culture media from the wells were collected for further analysis.
The release of IL-1β into the media was determined by quantitative detection of IL-1β in the media using HTRF®, CisBio cat. No. 62HIL1BPEH. Briefly, cell culture supernatant were dispensed directly into the assay plate containing antibodies labelled with the HTRF® donor and acceptor. A microplate spectrophotometer (BMG) was used to detect signals at 655 nm and 620 nm. The detection range of IL-1β HTRF® was 39-6500 μg/mL.

| SMILES | IC50 (THP-1) | IC50 [1] |
| --- | --- | --- |
| Cc1cc(CNC2CCOCC2)nnc1-c1c(C)cc(C(F)(F)F)cc1O [Compound 10, 3-Methyl-2-(4-methyl-6-(((tetrahydro-2H-pyran-4-yl)amino)methyl)pyridazin-3-yl)-5-(trifluoromethyl)phenol] | 1000 to 3000 nM | 1000 to 3000 nM |
| Cc1cc(C(F)(F)F)cc(O)c1-c1ccc(CNc2cscn2)nn1 [Compound 28] | 500 to 1000 nM | 500 to 1000 nM |
| Cc1cc(C(F)(F)F)cc(O)c1-c1ccc(CN(C)C)nn1 [Compound 94] | 1000 to 3000 nM | 1000 to 3000 nM |
| Cc1cc(C(F)(F)F)cc(O)c1-c1ccc(CNCC2CCN(C)C2)nn1 (stereo not drawn) [Compound 77, 3-Methyl-2-[6-({[(1-methylpyrrolidin-3-yl)methyl]amino}methyl)pyridazin-3-yl]-5-(trifluoromethyl)phenol dihydrochloride] | 1000 to 3000 nM | 1000 to 3000 nM |
| Cc1cc(C(F)(F)F)cc(O)c1-c1ccc(CNc2cccnc2)nn1 [Compound 79, 3-Methyl-2-(6-{[(pyridin-3-yl)amino]methyl}pyridazin-3-yl)-5-(trifluoromethyl)phenol] | 500 to 1000 nM | 500 to 1000 nM |
| Cc1cc(C(F)(F)F)cc(O)c1-c1ccc(CNc2ccnn2C)nn1 [Compound 27] | 1000 to 3000 nM | 500 to 1000 nM |
| Cc1cc(Cl)cc(O)c1-c1ccc(CNC2CCOCC2)nn1 [Compound 12, 5-Chloro-3-methyl-2-(6-(((tetrahydro-2H-pyran-4-yl)amino)methyl)pyridazin-3-yl)phenol] | < 500 nM | < 500 nM |
| Cc1cc(C(F)(F)F)cc(O)c1-c1ccc(CNC2CCOC(C)C2)nn1 (stereo not drawn) [Compound 139] | 1000 to 3000 nM | 500 to 1000 nM |
| Cc1cc(C(F)(F)F)cc(O)c1-c1ccc(CNc2cnoc2)nn1 [Compound 124] | < 500 nM | < 500 nM |
| Cc1cc(C(F)(F)F)cc(O)c1-c1ccc(CNC2(C)CCOCC2)nn1 [Compound 5, 3-Methyl-2-(6-(((4-methyltetrahydro-2H-pyran-4-yl)amino)methyl)pyridazin-3-yl)-5-(trifluoromethyl)phenol] | 500 to 1000 nM | 500 to 1000 nM |
| Cc1cc(C(F)(F)F)cc(O)c1-c1ccc(CNC2CCCC2)nn1 [Compound 101] | 500 to 1000 nM | < 500 nM |
| Cc1cc(C(F)(F)F)cc(O)c1-c1ccc(CNCCN(C)C)nn1 [Compound 116] | 3000 to 10000 nM | 3000 to 10000 nM |
| Cc1cc(C(F)(F)F)cc(O)c1-c1ccc(CNC2CC3(COC3)C2)nn1 [Compound 2, 2-(6-(((2-Oxaspiro[3.3]heptan-6-yl)amino)methyl)pyridazin-3-yl)-3-methyl-5-(trifluoromethyl)phenol] | 500 to 1000 nM | 500 to 1000 nM |
| Cc1cc(C(F)(F)F)cc(O)c1-c1ccc(CNC2CCS(=O)(=O)CC2)nn1 [Compound 137] | 1000 to 3000 nM | 1000 to 3000 nM |
| Cc1cc(C(F)(F)F)cc(O)c1-c1ccc(C2(N3CCCC3=O)CC2)nn1 [Compound 86, 1-(1-{6-[2-Hydroxy-6-methyl-4-(trifluoromethyl)phenyl]pyridazin-3-yl}cyclopropyl)pyrrolidin-2-one] | 500 to 1000 nM | 500 to 1000 nM |
| Cc1cc(C(F)(F)F)cc(O)c1-c1ccc(CNC2CC(=O)N(C)C2=O)nn1 (stereo not drawn) [Compound 114] | 500 to 1000 nM | < 500 nM |
| Cc1cc(C(F)(F)F)cc(O)c1-c1ccc(Cn2ccccc2=N)nn1 [Compound 119] | 500 to 1000 nM | 500 to 1000 nM |
| Cc1cc(Cl)cc(O)c1-c1ccc(CN2CCCC2)nn1 [Compound 54, 5-Chloro-3-methyl-2-(6-(pyrrolidin-1-ylmethyl)pyridazin-3-yl)phenol] | 500 to 1000 nM | < 500 nM |
| CNCc1ccc(-c2c(C)cc(C(F)(F)F)cc2O)nn1 [Compound 93] | 1000 to 3000 nM | 1000 to 3000 nM |
| Cc1cc(C(F)(F)F)cc(O)c1-c1ccc(CNC2CCCN(C)C2)nn1 (stereo not drawn) [Compound 22] | 1000 to 3000 nM | 1000 to 3000 nM |

| SMILES | IC50 (THP-1) | IC50 [1] |
| --- | --- | --- |
| Cc1cc(C(F)(F)F)cc(O)c1-c1ccc(CNCc2ccnn2C)nn1 [Compound 126] | 1000 to 3000 nM | 1000 to 3000 nM |
| Cc1cc(C(F)(F)F)cc(O)c1-c1ccc(CNc2ccncn2)nn1 [Compound 75, 3-Methyl-2-(6-((pyrimidin-4-ylamino)methyl)pyridazin-3-yl)-5-(trifluoromethyl)phenol hydrochloride] | < 500 nM | 500 to 1000 nM |
| Cc1cc(C(F)(F)F)cc(O)c1-c1ccc(CNc2ccn(C)n2)nn1 [Compound 122] | 500 to 1000 nM | < 500 nM |
| Cc1cc(C(F)(F)F)cc(O)c1-c1ccc(CNC2CC(F)(F)C2)nn1 [Compound 143] | – | < 500 nM |
| Cc1cc(C(F)(F)F)cc(O)c1-c1ccc(C[n+]2cccc(N)c2)nn1 [Compound 145] | 1000 to 3000 nM | 3000 to 10000 nM |
| Cc1cc(C(F)(F)F)cc(O)c1-c1ccc(CNCc2cnn(C)c2)nn1 [Compound 128] | 1000 to 3000 nM | 1000 to 3000 nM |
| Cc1cc(C(F)(F)F)cc(O)c1-c1ccc(CN2CCOCC2)nn1 [Compound 130] | 500 to 1000 nM | 500 to 1000 nM |
| Cc1cc(Cl)cc(O)c1-c1ccc(CN[C@H]2CC(=O)N(C)C2)nn1 [Compound 90, (4S)-4-({[6-(4-Chloro-2-hydroxy-6-methylphenyl)pyridazin-3-yl]methyl}amino)-1-methylpyrrolidin-2-one] | 500 to 1000 nM | < 500 nM |
| CCNCc1ccc(-c2c(C)cc(C(F)(F)F)cc2O)nn1 [Compound 98] | 500 to 1000 nM | < 500 nM |
| Oc1cc(Cl)cc(F)c1-c1ccc(CNC2CCOCC2)nn1 [Compound 69, 5-Chloro-3-fluoro-2-(6-(((tetrahydro-2H-pyran-4-yl)amino)methyl)pyridazin-3-yl)phenol hydrochloride] | 3000 to 10000 nM | 3000 to 10000 nM |
| Cc1cc(C(F)(F)F)cc(O)c1-c1ccc(CN[C@@H]2CCN(C)C(=O)C2)nn1 [Compound 37, (R)-4-(((6-(2-Hydroxy-6-methyl-4-(trifluoromethyl)phenyl)pyridazin-3-yl)methyl)amino)-1-methylpiperidin-2-one] | 1000 to 3000 nM | 500 to 1000 nM |
| Cc1cc(C(F)(F)F)cc(O)c1-c1ccc(CNC2COC2)nn1 [Compound 21] | 500 to 1000 nM | 500 to 1000 nM |
| Cc1cc(C(F)(F)F)cc(O)c1-c1ccc(CN[C@H]2CCOC2)nn1 [Compound 33, (S)-3-methyl-2-(6-(((tetrahydrofuran-3-yl)amino)methyl)pyridazin-3-yl)-5-(trifluoromethyl)phenol] | < 500 nM | < 500 nM |
| Cc1cc(C(F)(F)F)cc(O)c1-c1ccc(COC2CCCNC2)nn1 (stereo not drawn) [Compound 18, 3-Methyl-2-(6-((piperidin-3-yloxy)methyl)pyridazin-3-yl)-5-(trifluoromethyl)phenol] | 1000 to 3000 nM | 500 to 1000 nM |
| Cc1cc(C(F)(F)F)cc(O)c1-c1ccc(CNCC2CCCO2)nn1 (stereo not drawn) [Compound 106] | 3000 to 10000 nM | 1000 to 3000 nM |
| Cc1cc(Cl)cc(O)c1-c1ccc(CN(C)[C@H]2CC(=O)N(C)C2)nn1 [Compound 91, (4S)-4-({[6-(4-Chloro-2-hydroxy-6-methylphenyl)pyridazin-3-yl]methyl}(methyl)amino)-1-methylpyrrolidin-2-one] | 1000 to 3000 nM | 1000 to 3000 nM |
| Cc1cc([N+](=O)[O-])cc(O)c1-c1ccc(CNC2CCOCC2)nn1 [Compound 57, 3-Methyl-5-nitro-2-(6-(((tetrahydro-2H-pyran-4-yl)amino)methyl)pyridazin-3-yl)phenol hydrochloride] | 3000 to 10000 nM | 1000 to 3000 nM |
| Cc1cc(OC(F)(F)F)cc(O)c1-c1ccc(CNC2CCOCC2)nn1 [Compound 30, 3-Methyl-2-(6-(((tetrahydro-2H-pyran-4-yl)amino)methyl)pyridazin-3-yl)-5-(trifluoromethoxy)phenol] | 3000 to 10000 nM | 3000 to 10000 nM |
| Cc1cc(C(F)(F)F)cc(O)c1-c1ccc(CN[C@H]2CC(=O)N(C)C2)nn1 [Compound 49, (S)-4-(((6-(2-Hydroxy-6-methyl-4-(trifluoromethyl)phenyl)pyridazin-3-yl)methyl)amino)-1-methylpyrrolidin-2-one] | < 500 nM | < 500 nM |
| Cc1cnc(NCc2ccc(-c3c(C)cc(C(F)(F)F)cc3O)nn2)o1 [Compound 148] | 1000 to 3000 nM | – |

— patent publication US20250115558A1, “PYRIDAZINE DERIVATIVES AND RELATED USES” (NodThera Limited, priority 2023, published 2025)
